Data from patent publication US11560391B2, “Sulfonylurea compounds as inhibitors of interleukin-1 activity” (Genentech, Inc., priority 2018, dated 2023).
Where two headings read alike, the source gives them in different places.

How the values were obtained:
THP-1 ASC-GFP cells = test: THP-1 ASC-GFP speck assay (NLRP3 inflammasome activation, nigericin); format: cell-based; settings: THP1-ASC-GFP; PMA-differentiated, LPS primed, 10 μM nigericin
In short: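 PMA-differentiated (500 ng/ml, overnight) THP-1 ASC-GFP cells primed with LPS 1 μg/mL for 3 h, pre-treated 30 min with compound (20-point, 2-fold from 40 μM), then nigericin 10 μM for 90 min. After fixation, imaging gives % cells with ASC-GFP specks against Hoechst-counted nuclei.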

PBMCs = test: CTG (CellTiter-Glo) viability assay of compound-treated LPS and nigericin stimulated PBMCs; format: cell-based, human; settings: Homo sapiens, PBMC
In short: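 Human PBMCs primed with 100 ng/mL LPS for 3 h, pre-incubated 30 min with compound (0.00017–10 uM) in FBS-free medium, then stimulated with 10 μM nigericin for 1.5 h. Viability read by CellTiter-Glo ATP luminescence as a cytotoxicity counter-screen.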

NLRP3 inflammasome = target: T1, NLRP3 inflammasome (Homo sapiens, UniProt Q96P20); test: NLRP3 inflammasome activation assay in LPS-primed, nigericin-stimulated PBMCs, IL-1β release; format: cell-based; settings: 10 μM nigericin
T1 construct: freshly isolated from human peripheral blood from healthy donors; StemCells Technologies; host or cells: primary human PBMCs
In short: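 Fresh or cryopreserved human PBMCs primed with 100 ng/mL LPS for 3 h, pre-incubated 30 min with compound (0.00017-10 uM, or 2-fold 20-point series from 40 μM), then stimulated with 10 μM nigericin for 1.5 h at 37 °C. Supernatant IL-1β measured by ELISA or by HTRF (665/620 ratio).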

TNFα = TNFα levels of LPS and nigericin stimulated PBMCs (counter-screen); format: cell-based; settings: Homo sapiens, PBMC
Method: Human peripheral blood mononuclear cells (PBMCs), consisting of lymphocytes (T, B and NK cells), monocytes and dendritic cells, are freshly isolated from human peripheral blood from healthy donors. Cells are obtained through an IRB approved donor program by iXCells Biotechnologies where all the donors are tested for bacterial and viral infections. Cells are purified from peripheral blood using ficoll gradient centrifugation.
Fresh or cryopreserved PMBCs are seeded in V-bottom 96-well plate at 0.5-1×10^5 cells per well and incubated overnight at 37° C. with 5% CO2 in RPMI 1640 medium with GlutaMAX supplement, 4.5 g/L D-glucose, 10% Fetal Bovine Serum (FBS), […] Sodium Pyruvate, 1% Penicillin/Streptomycin, 10 mM HEPES and 0.05 mM of […]. Freshly isolated or cryopreserved KCs cells are seeded in flat-bottom 96-well plates at 0.6-1.5×10^5 cells/well and incubated overnight at 37° C., 5% CO2 in RPMI 1640 Medium with GlutaMAX supplement, FBS, 1% Penicillin/Streptomycin and 10 mM HEPES. The following day, the cells are primed with 100 ng/mL of lipopolysaccharides (LPS; Sigma Aldrich) in FBS-free RPMI 1640 for 3 h. After the priming step, the media is removed and PBMCs are pre-incubated with serial concentrations of test compounds (0.00017-10 uM) or vehicle (DMSO) for 30 min in FBS-free media prior to addition of the NLRP3 activator. Cells are then stimulated with 10 μM Nigericin (Sigma Aldrich; InvivoGen) for 1.5 h. Plates were centrifuged at 1,500 rpm for 3 minutes to pellet cells and supernatant was transferred into new plates for subsequent experiments.
For ELISA assays cells are seeded into 96-well plates. Post study, supernatants are removed and the levels of mature IL-1β, IL18 and TNFα (Quantikine ELISA, R&D systems) are measured in cell conditioned media by ELISA according to manufacturer's instructions.
TNFα levels of LPS and nigericin stimulated cells are measured by HTRF assay (Cisbio, Bedford, Mass.). […] Measuring TNFalpha production also serves as a technical counter-screen to eliminate compounds that interfere with the HTRF reagents. Thus compounds that inhibit both IL-1β and TNFα levels are triaged for either being non-selective for inflammasome or interfering with the HTRF readout.

[1] = PBMC, LPS priming, read-out: PMBC IL-1β IC50

T1 sequence (Q96P20 whole entry): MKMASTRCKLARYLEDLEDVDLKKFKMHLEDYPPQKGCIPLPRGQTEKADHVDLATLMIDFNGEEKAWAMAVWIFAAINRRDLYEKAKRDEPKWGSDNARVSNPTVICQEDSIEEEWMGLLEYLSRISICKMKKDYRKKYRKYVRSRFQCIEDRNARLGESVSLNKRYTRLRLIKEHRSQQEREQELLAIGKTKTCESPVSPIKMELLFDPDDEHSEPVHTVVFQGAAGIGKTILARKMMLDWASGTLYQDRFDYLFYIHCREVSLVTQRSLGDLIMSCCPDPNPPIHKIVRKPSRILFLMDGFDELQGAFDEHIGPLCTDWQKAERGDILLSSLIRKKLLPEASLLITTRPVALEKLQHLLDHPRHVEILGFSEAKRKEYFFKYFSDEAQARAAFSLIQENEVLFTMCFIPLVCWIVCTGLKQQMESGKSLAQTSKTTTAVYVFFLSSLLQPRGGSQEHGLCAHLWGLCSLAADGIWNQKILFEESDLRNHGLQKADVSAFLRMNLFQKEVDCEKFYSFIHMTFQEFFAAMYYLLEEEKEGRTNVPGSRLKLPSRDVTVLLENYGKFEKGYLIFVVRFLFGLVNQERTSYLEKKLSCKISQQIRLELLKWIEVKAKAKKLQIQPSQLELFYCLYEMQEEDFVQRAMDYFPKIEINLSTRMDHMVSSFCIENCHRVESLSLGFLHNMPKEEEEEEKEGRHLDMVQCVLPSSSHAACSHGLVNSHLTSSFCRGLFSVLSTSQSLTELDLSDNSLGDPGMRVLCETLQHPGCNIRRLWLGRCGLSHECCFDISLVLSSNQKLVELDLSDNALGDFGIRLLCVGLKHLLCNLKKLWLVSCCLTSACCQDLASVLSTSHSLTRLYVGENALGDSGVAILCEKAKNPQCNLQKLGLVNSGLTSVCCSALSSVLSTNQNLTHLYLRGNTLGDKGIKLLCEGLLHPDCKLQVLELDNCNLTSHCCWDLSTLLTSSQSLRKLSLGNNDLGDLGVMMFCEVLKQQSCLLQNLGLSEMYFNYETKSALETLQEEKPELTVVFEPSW

Row | IC50 (THP-1 ASC-GFP cells) | IC50 (NLRP3 inflammasome; [1]) | IC50 (NLRP3 inflammasome; LPS 100 ng/mL priming, read-out: IL-1B pIC50 (converted)) | SMILES | IC50 (PBMCs; read-out: PMBC CTG IC50) | IC50 (TNFα; read-out: PMBC TNFα IC50) | IC50 (PBMCs; read-out: PMBC CTG IC50 (μM)) | IC50 (TNFα; read-out: PMBC TNFα IC50 (μM)) | IC50 (PBMCs; LPS and nigericin stimulated cells, read-out: CTG pIC50 (converted)) | IC50 (TNFα; LPS and nigericin stimulated cells, read-out: TNFa pIC50 (converted))
1 | 3.3 µM | 3.4 µM | – | CNc1cc(C(C)C)c(NC(=O)NS(=O)(=O)c2cnn3c2OCCC3)c(C(C)C)n1 [Example 53, N-((2,4-diisopropyl-6-(methylamino)pyridin-3-yl)carbamoyl)-6,7-dihydro-5H-pyrazolo[5,1-b][1,3]oxazine-3-sulfonamide] | 0.88 µM | > 10 µM | – | – | – | –
2 | 2 µM | 2.47 µM | – | Cc1cc(C(C)C)c(NC(=O)NS(=O)(=O)c2cnn3c2OCCC3)c(C(C)C)n1 [Example 48, N-((2,4-diisopropyl-6-methylpyridin-3-yl)carbamoyl)-6,7-dihydro-5H-pyrazolo[5,1-b][1,3]oxazine-3-sulfonamide] | 2.43 µM | > 10 µM | – | – | – | –
3 | – | – | 0.1 to 1 µM | CC(C)c1cc(C(F)(F)F)nc(C(C)C)c1NC(=O)NS(=O)(=O)c1cnn2c1OCCC2 [drawing 421] | – | – | – | – | < 0.1 µM | > 10 µM

The remaining lines, values behind:

Row | SMILES | IC50 (THP-1 ASC-GFP cells) | IC50 (NLRP3 inflammasome; [1]) | IC50 (NLRP3 inflammasome; LPS 100 ng/mL priming, read-out: IL-1B pIC50 (converted)) | IC50 (PBMCs; read-out: PMBC CTG IC50) | IC50 (TNFα; read-out: PMBC TNFα IC50) | IC50 (PBMCs; read-out: PMBC CTG IC50 (μM)) | IC50 (TNFα; read-out: PMBC TNFα IC50 (μM)) | IC50 (PBMCs; LPS and nigericin stimulated cells, read-out: CTG pIC50 (converted)) | IC50 (TNFα; LPS and nigericin stimulated cells, read-out: TNFa pIC50 (converted))
4 | CC(C)c1cc(C(F)(F)F)nc(C(C)C)c1NC(=O)NS(=O)(=O)c1cnn2c1OCCC2 [Example 54, N-((2,4-diisopropyl-6-(trifluoromethyl)pyridin-3-yl)carbamoyl)-6,7-dihydro-5H-pyrazolo[5,1-b][1,3]oxazine-3-sulfonamide] | 0.62 µM | 0.32 µM | – | 0.016 µM | > 10 µM | – | – | – | –
5 | COc1cc(C(C)C)c(NC(=O)NS(=O)(=O)c2cnn3c2OC[C@@H](N(C)C)C3)c(C(C)C)n1 [Example 52a, (S)—N-((2,4-diisopropyl-6-methoxypyridin-3-yl)carbamoyl)-6-(dimethylamino)-6,7-dihydro-5H-pyrazolo[5,1-b][1,3]oxazine-3-sulfonamide] | 0.5 µM | 0.79 µM | – | 0.39 µM | > 10 µM | – | – | – | –
6 | COc1cc(C(C)C)c(NC(=O)NS(=O)(=O)c2cnn3c2OCC(C)(C)C3)c(C(C)C)n1 [Example 47, N-((2,4-diisopropyl-6-methoxypyridin-3-yl)carbamoyl)-6,6-dimethyl-6,7-dihydro-5H-pyrazolo[5,1-b][1,3]oxazine-3-sulfonamide] | 8.3 µM | 2.01 µM | – | 1.16 µM | > 10 µM | – | – | – | –
7 | CC(C)c1ncc2c(c1NC(=O)NS(=O)(=O)c1cnn3c1OCCC3)CCC2 [Example 55, N-((3-isopropyl-6,7-dihydro-5H-cyclopenta[c]pyridin-4-yl)carbamoyl)-6,7-dihydro-5H-pyrazolo[5,1-b][1,3]oxazine-3-sulfonamide] | – | > 10 µM | – | – | – | > 10 µM | > 10 µM | – | –
8 | CC(C)NC(=O)NS(=O)(=O)c1cnn2c1OCC(CN)C2 (racemic) [Example 56, 6-(aminomethyl)-N-(isopropylcarbamoyl)-6,7-dihydro-5H-pyrazolo[5,1-b][1,3]oxazine-3-sulfonamide] | – | > 10 µM | – | > 10 µM | > 10 µM | – | – | – | –
